“Also recorded” adds a separate entry of the source. C16 = N-terminal C16 alkyl chain
B1: rVEGF: mouse recombinant VEGF (R&D systems) (protein)
chain: APTTEGEQKSHEVIKFMDVYQRSYCRPIETLVDIFQEYPDEIEYIFKPSCVPLMRCAGCCNDEALECVPTSESNITMQIMRIKPHQSQHIGEMSFLQHSRCECRPKKDRTKPENHCEPCSERRKHLFVQDPQTCKCSCKNTDSRCKARQLELNERTCRCDKPRR

Key:
[1] = system: ZO-1, Claudin-5 and Occludin; assay: Western blot of tight junction proteins in cerebella; type: in vivo, mouse; details: SCA1 mice cerebella, normalized to actin
Method: (§1) To test for behavioral and pathological improvement mice were treated for a two-week period starting at 24 weeks. Nano-VEGF, mouse rVEGF (R&D systems, Minneapolis, Minn.) or artificial CSF (sham controls) were delivered using the intracerebroventricular route (into the right lateral ventricle with stereotaxic coordinates: A/P −0.5 mm, M/L −1.1 mm, D/V −2.5 mm). using osmotic ALZET pumps; model #1002, Durect) (Cvetanovic et al., 2011; herein incorporated by reference in its entirety). Behavioral assays were performed at 26 weeks; while biochemical and histochemical analysis was performed at 27 weeks (after euthanasia). For electrophysiological experiments, we used 8-10 week-old mice for pump placement (with a similar two-week treatment regimen) since it is difficult to generate good electrophysiological traces from older mice.
(§2) Proteins were extracted from cerebellar tissues using radioimmunoprecipitation assay (RIPA) buffer (50 mM Tris-HCl, pH 8.0, 150 mM NaCl, 1 mM EDTA, 10 mM NaF, 0.5% Sodium deoxycholate, 1% Triton-X 100, 0.1% SDS, protease inhibitors (Sigma)), and resolved on 7.5% SDS-PAGE gel. Densitometric analysis was evaluated using ImageJ 1.46r software (National Institutes of Health, Bethesda, Md., USA). […]

Ataxin-1 inclusions = assay: Immunohistochemistry of Ataxin-1 inclusions in hippocampal CA1; type: in vivo, mouse; details: SCA1 mice, 27 weeks; vs aCSF
Method: as §1
To quantify the percentage of cells with ataxin-1 inclusions in the CA1 regions of the hippocampus, brain sections were stained for ataxin-1 (mouse anti-Ataxin-1 11NQ clone N76/3; NeuroMab, 1:1000) and counterstained with DAPI. The number of cells with ataxin-1 inclusions in each defined region of interest was normalized to the number of cells stained with DAPI only. Statistical analysis was performed using unpaired t test. […]

[2] = cited from earlier work
[3] = system: SCA1 knock-in mice (SCA1154Q/2Q); assay: Gait analysis on transparent treadmill (Digigait); type: in vivo, mouse; details: tested up to 24 cm/s, untreated SCA1 mice barely walk at 5 cm/s
Method: as §1
Gait Analysis: Mice were placed on a transparent treadmill belt connected to a high-speed digital video camera (Digigait© system; Mouse Specifics, Inc.). The speed of the treadmill was set to the minimum of 5 cm/s up to maximum tolerated speed (maxed out at 24 cm/s). The performance of mice on the treadmill at different speeds was recorded with digital video camera.

Ataxin-1 = assay: Western blot of Ataxin-1; type: in vivo, mouse; details: SCA1 mice, two weeks of treatment
Method: as §1, §2

[4] = system: SCA1 knock-in mice (SCA1154Q/2Q); assay: Rotating rod assay (accelerating rotarod); type: in vivo, mouse; details: SCA1 mice at 26 weeks; for rotarod performance: after two-week ICV delivery from 24 weeks, compared to aCSF-treated SCA1 mice
Method: as §1
Rotating Rod Assay: 26-week-old mice (post-treatment) were placed on a rotating rod apparatus (Ugo Basile) that accelerates linearly from 4 to 40 rotations per minute over a 5-minute period. Mice were subjected to four trials per day for four consecutive days, each trial lasting to a maximum of ten minutes, with at least ten minutes of rest between each trial. The average performances for each day were plotted, and statistical differences between the different groups were analyzed using repeated measures two-way ANOVA (followed by Tukey's honest significant difference post-hoc test for multiple comparisons). All statistical analyses here and elsewhere were performed using GraphPad Prism 6 software (GraphPad Software, La Jolla Calif. USA). Data were considered significant for p<0.05. Data are expressed as mean±SEM.

VEGFR2 = molecular target: T1, VEGFR2 (Mus musculus, UniProt P35918); assay: Phospho-VEGFR2 ELISA on cerebellar lysates; type: in vivo
T1 construct: Cerebellar lysates were prepared in 2× cell lysis buffer; from tissue; host or cells: mouse cerebellum (SCA1 154Q/2Q knock-in and wild-type mice)
Method: as §1
Phospho-VEGFR2 ELISA was performed using PathScan® Phospho-VEGFR2 (Ty1175) Sandwich ELISA kit (7335, Cell Signaling), according to manufacturer's instruction. Cerebellar lysates were prepared in 2× cell lysis buffer, and undiluted tissue lysates were incubated in 96-well plates coated with phosphor-VEGFR2 primary antibody overnight at 4° C. Wells were washed several times, and detection antibody was added to the well and incubated for 1 hr at 37C and with HRP-conjugated secondary antibody for 30 min at 37° C. Signals were detected with 3,3′,5,5′-Tetramethylbenzidine (TMB) substrate and sulfuric acid were added to stop the reaction. Absorbance was read at 450 nm within 30 min after stopping the reaction.

[5] = system: cerebellar microvasculature; assay: Collagen IV immunostaining of cerebellar microvessels (AngioTool); type: in vivo, mouse; details: SCA1 mice cerebella
Method: as §1
(§3) 27-week-old mice (post treatment and post behavioral analysis) were anesthetized by isoflurane inhalation and were perfused with ice-cold PBS, followed by 4% paraformaldehyde in PBS (Israeli et al., 2016; herein incorporated by reference in its entirety). The brains were post-fixed in 4% paraformaldehyde for 24 hrs, followed by tissue saturation in 30% sucrose for 48-72 hrs. […] After three washes in TBST, signals were detected using according secondary antibodies for 2 hours at RT. […]

Purkinje cells [6] = assay: Electrophysiological slice recordings, cell-attached, spontaneous firing; type: in vivo, mouse; details: SCA1 mice treated from 8-10 weeks for two weeks; vs vehicle (aCSF)
Method: as §1
Mice were anesthetized with isoflurane and killed by decapitation. The brains were removed from the skull and placed in warm (30-33° C.) artificial cerebrospinal fluid (ACSF) containing (in mM): 125 NaCl, 25 NaHCO3, 2.5 KCl, 1.25 NaH2PO4, 0.5 CaCl2), 7 MgCl2, 75 sucrose and 25 glucose, equilibrated with 95% O2 and 5% CO2 (pH 7.4). 300 μm thick para-sagittal cerebellar slices were cut using a vibratome (Leica VT1200) and stored in the same solution at 34° C. for 15 min and then at 20-22° C. until used (<6 hours). […] Cells were recorded in the I-Clamp fast mode. […]

Purkinje cells [7] = assay: Calbindin staining, Purkinje cell dendritic length; type: in vivo, mouse; details: SCA1 mice at 27 weeks; vs aCSF
Method: as §1, §3

[8] = cited from earlier work; remark: listed apart in the source
[9] = SCA1 mice, cerebellar lysates, vs aCSF

T1 sequence (P35918 20-1345): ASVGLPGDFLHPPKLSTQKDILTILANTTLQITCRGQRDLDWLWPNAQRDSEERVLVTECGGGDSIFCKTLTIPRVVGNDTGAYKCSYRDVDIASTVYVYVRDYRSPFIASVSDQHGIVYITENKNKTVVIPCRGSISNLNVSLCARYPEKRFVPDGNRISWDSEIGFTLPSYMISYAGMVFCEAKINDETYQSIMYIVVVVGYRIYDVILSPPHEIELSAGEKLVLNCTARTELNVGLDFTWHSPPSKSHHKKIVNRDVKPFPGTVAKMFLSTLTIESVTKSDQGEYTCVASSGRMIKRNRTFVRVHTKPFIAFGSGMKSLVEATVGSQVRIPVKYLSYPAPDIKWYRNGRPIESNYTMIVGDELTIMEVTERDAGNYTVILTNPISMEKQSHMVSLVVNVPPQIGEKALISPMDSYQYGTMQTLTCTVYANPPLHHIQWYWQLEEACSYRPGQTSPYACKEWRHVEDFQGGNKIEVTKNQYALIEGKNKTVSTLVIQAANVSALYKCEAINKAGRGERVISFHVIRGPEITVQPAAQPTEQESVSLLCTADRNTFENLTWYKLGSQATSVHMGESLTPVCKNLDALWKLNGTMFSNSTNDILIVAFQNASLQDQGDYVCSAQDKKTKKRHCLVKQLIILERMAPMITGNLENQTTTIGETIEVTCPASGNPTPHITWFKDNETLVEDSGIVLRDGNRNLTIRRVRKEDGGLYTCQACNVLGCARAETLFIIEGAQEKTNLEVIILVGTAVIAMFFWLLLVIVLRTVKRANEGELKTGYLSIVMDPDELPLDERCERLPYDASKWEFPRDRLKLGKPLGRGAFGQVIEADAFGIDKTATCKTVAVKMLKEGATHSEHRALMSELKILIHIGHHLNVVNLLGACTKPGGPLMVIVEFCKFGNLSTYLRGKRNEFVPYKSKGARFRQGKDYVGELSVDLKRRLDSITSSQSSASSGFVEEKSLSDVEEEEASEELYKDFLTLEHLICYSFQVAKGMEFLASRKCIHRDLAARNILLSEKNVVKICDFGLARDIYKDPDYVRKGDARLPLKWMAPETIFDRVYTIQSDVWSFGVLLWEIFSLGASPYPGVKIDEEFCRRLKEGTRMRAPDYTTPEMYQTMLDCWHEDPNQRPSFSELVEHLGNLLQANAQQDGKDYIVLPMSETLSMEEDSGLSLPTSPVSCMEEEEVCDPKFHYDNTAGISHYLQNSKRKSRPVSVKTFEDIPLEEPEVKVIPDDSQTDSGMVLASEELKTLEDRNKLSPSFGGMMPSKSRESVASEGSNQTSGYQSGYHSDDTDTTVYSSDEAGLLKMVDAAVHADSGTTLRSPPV

Molecule	levels of capillary proteins (tight junction markers ZO-1, Claudin-4, and Occludin) [1]	percentage of cells with Ataxin-1 inclusions in the CA1 of hippocampi (Ataxin-1 inclusions)	bioequivalence relative to rVEGF ([2]; functional studies in mouse hind-limb ischemia model, basis for dose 20.0 μg vs 2.5 μg)	time detectable post-injection ([2]; ischemic limb model)	retention of particles in tissue ([2]; mouse hind-limb ischemia model)	treadmill speed at which treated mice could walk and even run [3]	Ataxin-1 protein levels (Ataxin-1)	rotarod performance [4]	rotarod performance ([4]; listed as Nano-VEGF)	rotarod improvement, nano-VEGF compared with rVEGF ([4]; nano-VEGF 20.0 μg vs rVEGF 2.5 μg over two weeks ICV)	VEGFR2 phosphorylation level (VEGFR2; [9])	VEGFR2 phosphorylation level (VEGFR2; wild-type (WT) mice)	average vessel length, improvement compared with rVEGF [5]	branching index, improvement compared with rVEGF [5]	spontaneous firing of Purkinje cells (Purkinje cells [6])	Purkinje cell dendritic length (calbindin staining) (Purkinje cells [7])	half-life in vivo [8]
C16-V2A2K3G-KLTWQELYQLKYKGI (C16-VVAAKKKGKLTWQELYQLKYKGI-NH2) [nano-VEGF, VEGF peptide (mimics VEGF residues 17-25) linked at N terminus to K3G, V2A2 β-domain and C16 alkyl chain; self-assembling peptide amphiphile]	more effective than rVEGF	does not differ from that of aCSF-treated mice	approximately eight times that of rVEGF	up to 4 weeks	retained in tissue even four weeks after delivery	17 cm/s	does not alter Ataxin-1 levels	performed markedly better than control SCA1 mice treated with artificial CSF	improved rotarod performance	tended to produce a greater improvement than rVEGF; also recorded: more effective	rescued	did not upregulate phosphorylation of VEGFR2	greater improvement	greater improvement	significantly faster and more regular firing; also recorded: increases firing in Purkinje cells	significantly increase dendritic length	–
B1	–	–	–	–	–	17 cm/s	–	performed markedly better than control SCA1 mice treated with artificial CSF; also recorded: improved rotarod performance	–	–	rescued	did not upregulate phosphorylation of VEGFR2	–	–	–	significantly increase dendritic length	about 30 minutes

From patent US20220118051A1, “SELF-ASSEMBLING VEGF NANOPARTICLES” (Northwestern University, priority 2018, published 2022)
